{"source": "patent US20210393570A1", "about": "“THERAPEUTICAL COMPOSITIONS FOR USE IN THE TREATMENT OF NON-MALIGNANT CONDITIONS ASSOCIATED WITH PHOSPHATIDYLINOSITOL-3-KINASE ACTIVATION: OVERGROWTH SPECTRUM, CUTANEOUS CAPILLARY MALFORMATIONS AND SEBORRHEIC KERATOSES” (UNIVERSITÉ DE BOURGOGNE, priority 2017, published 2021)", "key": {"[1]": {"tested_on": "fibroblasts from patients", "assay": "Cell viability measured by XTT labeling", "type": "cell-based, human", "conditions": "48 h treatment, increasing doses; compared with PI3K or mTOR inhibitors; FIG. 3A, 3B", "method": "(§1) FIG. 3 Cell viability measured by XTT labeling after 48 h of treatment by 10 μM LY294002 or by increasing doses of Triptolide (A), by 4 ng/ml Rapamycin (B) or increasing doses of Kribb11. For each experiment: control 1 (white bar), control 2 (hatched bar), patient B (grey bar), patient A (black bar). n=3. O.D.=optical density. (C) Number of cells after 48 h treatment for patient A. (D) Cell proliferation measured by incorporation of BrdU. O.D.=optical density. (E) Fibroblasts apoptosis of patients and healthy donors measured by a cell death detection ELISA kit, after 24 h treatment with 100 ng/ml rapamycin, 10 μM LY294002, 3 μM Kribb11 or 10 nM Triptolide. 1 μM of staurosporine was used as an inducer of apoptosis and as positive control of the experiment, n=3. O.D.=optical density. *p<0.05, **p<0.01, ***p<0.005."}, "[2]": {"tested_on": "patient A fibroblasts", "assay": "Number of cells after 48 h treatment", "type": "cell-based, human", "conditions": "compared with PI3K or mTOR inhibitors, FIG. 3C", "method": "as §1"}, "[3]": {"tested_on": "fibroblasts from patients", "assay": "Cell proliferation measured by incorporation of BrdU", "type": "cell-based, human", "conditions": "FIG. 3D", "method": "as §1"}, "[4]": {"tested_on": "patient A fibroblasts", "assay": "Quantitative PCR of 74 genes known to be regulated by HSF1", "type": "cell-based, human", "conditions": "two independent experiments, FIG. 2D", "description": "(D) Quantitative PCR analysis of the expression of 74 genes belonging to a cancer-related gene signature in patient A fibroblasts after treatment with LY294002. A code with different patterns is used to illustrate the intensity of the increase (gradient of grey) or decrease (shading pattern) of gene expression compared to untreated cells;\nThe Inventors have further investigated whether the PI3K/AKT/mTOR pathway is directly responsible for the activation of HSF1 in the fibroblasts of patients. The induction of PI3K/AKT activating pathway by adding insulin to normal fibroblasts is well known. […] To test this hypothesis, the expression of 74 known genes to be regulated by HSF1 have been determined after treatment with the PI3K inhibitor (FIG. 2D). In two independent experiments, the expression of 47 genes is inhibited while the expression of 11 genes is increased. The results are variable for 12 other genes (increase and decrease). […] Thus, a large part of a HSF1-dependent gene signature can be inhibited by the blocking of PI3K and thus confirms the link between these two pathways in the syndrome of segmental hypertrophy PIK3CA dependent."}, "[5]": {"tested_on": "fibroblasts of patients and healthy donors", "assay": "Fibroblast apoptosis measured by cell death detection ELISA kit", "type": "cell-based", "conditions": "24 h treatment; 3 μM Kribb11 or 10 nM Triptolide; FIG. 3E", "method": "as §1"}, "[6]": {"tested_on": "HSF1", "assay": "Immunoblotting of HSF1 phosphorylation in fibroblasts", "type": "cell-based, human", "conditions": "insulin added to normal fibroblasts; FIG. 2A"}, "[7]": {"tested_on": "AKT", "assay": "Immunoblotting of AKT phosphorylation in fibroblasts", "type": "cell-based, human", "conditions": "treatment with insulin; FIG. 2A"}}, "data": [{"compound": "CNc1ccc([N+](=O)[O-])c(Nc2ccc3[nH]ncc3c2)n1", "note": "[Kribb11]", "values": [{"measurement": "cell growth (cell viability, XTT)", "setting": "[1]", "value": "reduction in cell growth"}, {"measurement": "number of total cells", "setting": "[2]", "value": "reduction"}, {"measurement": "increase in the % of cells entering the S phase", "setting": "[3]", "value": "completely blocked"}]}, {"compound": "O=c1cc(N2CCOCC2)oc2c(-c3ccccc3)cccc12", "note": "[LY294002]", "values": [{"measurement": "number of HSF1-regulated genes whose expression is increased", "setting": "[4]", "value": 11, "unit": "genes"}, {"measurement": "number of HSF1-regulated genes whose expression is inhibited", "setting": "[4]", "value": 47, "unit": "genes"}, {"measurement": "number of HSF1-regulated genes with variable results (increase and decrease)", "setting": "[4]", "value": 12, "unit": "genes"}]}, {"compound": "CC(C)[C@]12O[C@H]1[C@@H]1O[C@]13[C@]1(O[C@H]1C[C@H]1C4=C(CC[C@@]13C)C(=O)OC4)[C@@H]2O", "note": "[Triptolide]", "values": [{"measurement": "cell growth (cell viability, XTT)", "setting": "[1]", "value": "reduction in cell growth"}, {"measurement": "number of total cells", "setting": "[2]", "value": "reduction"}, {"measurement": "cell mortality (apoptosis)", "setting": "[5]", "value": "not associated with an increase in cell mortality"}]}, {"compound": "insulin", "values": [{"measurement": "phosphorylation of HSF1", "setting": "[6]", "value": "induction of the phosphorylation of HSF1"}, {"measurement": "phosphorylation of AKT", "setting": "[7]", "value": "induces the phosphorylation of AKT"}]}]}
